{"source": "patent US12630523B2", "about": "“Isoquinoline derivatives for use as antiviral and antitumour agents” (priority 2021, dated 2026)", "key": {"[1]": {"test_system": "SARS-CoV-2 isolate BetaCov/Belgium/GHB-03021/2020", "test": "microbe, parasite or virus in culture", "assay_type": "cell-based", "conditions": "1.25 μM (non-toxic compound concentration), n4; for inhibition at 1.25 µM: Severe acute respiratory syndrome coronavirus 2"}, "[2]": {"test_system": "p38, JNK1, ERK1/2, PKC, or Src-like kinases", "conditions": "cited from earlier work"}, "[3]": {"test_system": "cell signaling molecules (4E-BP1, p70 S6 kinase, Akt, PTPN14, p53, PD-L1)", "test": "Western blot of cell signaling molecules in CaSki cells", "conditions": "CaSki, 6 h; order 10 μM VSP035, Torin 1, Torin 2, rapamycin, 5 μM VSP035, CGP 57380"}, "[4]": {"target": "Plk3 (Homo sapiens, UniProt Q9H4B4)", "sequence (Q9H4B4 whole entry, species assumed)": "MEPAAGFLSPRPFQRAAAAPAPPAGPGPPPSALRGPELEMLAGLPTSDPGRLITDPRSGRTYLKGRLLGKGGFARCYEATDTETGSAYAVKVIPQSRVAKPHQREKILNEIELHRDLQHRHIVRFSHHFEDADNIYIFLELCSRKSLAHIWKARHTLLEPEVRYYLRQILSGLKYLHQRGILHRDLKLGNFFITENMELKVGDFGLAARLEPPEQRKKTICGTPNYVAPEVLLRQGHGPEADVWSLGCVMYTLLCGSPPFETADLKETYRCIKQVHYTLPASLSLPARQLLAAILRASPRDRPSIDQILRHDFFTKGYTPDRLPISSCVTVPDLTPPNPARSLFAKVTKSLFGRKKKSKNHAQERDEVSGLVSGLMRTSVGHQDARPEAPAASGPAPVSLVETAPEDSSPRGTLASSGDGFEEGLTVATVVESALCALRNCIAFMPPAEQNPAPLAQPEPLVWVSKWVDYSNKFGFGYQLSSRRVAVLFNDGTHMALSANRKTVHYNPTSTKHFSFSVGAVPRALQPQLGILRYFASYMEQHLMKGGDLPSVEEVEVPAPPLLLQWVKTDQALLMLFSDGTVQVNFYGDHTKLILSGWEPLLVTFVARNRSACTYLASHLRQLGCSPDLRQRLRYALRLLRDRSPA", "conditions": "cited from earlier work"}, "[5]": {"test": "Pharmacokinetics of VSP034 and VSP035 after oral administration of a liposomal formulation", "assay_type": "in vivo, female Sprague-Dawley rats", "conditions": "for AUC(0-inf) / CL/F / Cmax / MRT inf / Tmax / Vd/F / half-life: female, Sprague-Dawley, rat, in vivo, po, 100 mg/kg; for AUC(0-inf): AUC0-inf; for MRT inf: MRT0-inf; for Vd/F: Vz/F", "description": "The pharmacokinetic parameters of VSP034 and VSP035 encapsulated as liposomal formulation were assessed after the administration of a single 100 mg/kg dose by oral gavage to 6 female Sprague-Dawley rats weighting 250 grams (+25 g). The animals were randomized into two experimental groups (Groups 1 and 2), each composed of 3 rats. Rats belonging to group 1 were administered with VSP034 and rats belonging to group 2 were administered with VSP035. Blood was collected at baseline and 15 min, 30 min, 1, 2, 4, 6, 8, and 24 hours after the oral gavage. The rats were sacrificed 24 hours after the dosing. Blood was collected at each timepoint from the caudal vein, with the exception of the last collection (24 hours), which was performed by intracardiac puncture at the moment of sacrifice under isoflurane anesthesia. The animals were weighted immediately before the dosing to assess the proper dose and carefully monitored during the experiment. They were kept in standard housing conditions, meeting the legal requirements for the correct housing of rodents for a period not exceeding the maximum experimental endpoints. Ad libitum access to water and food was allowed. […] Humane endpoints have not been reached. The pharmacokinetic analysis was performed using Microsoft Excel plug-in PK Solver. Pharmacokinetic parameters of two compounds are compared with the software GraphPad Prism ver. 8.0 by Student's t test for unpaired data. A p value <0.05 is considered statistically significant.\nAnalytical method: Compound analysis was performed following the bioanalytical method as in Test 13. In this study, carbamazepine was used as an internal standard.\nPharmacokinetic analysis: A pharmacokinetic analysis of VSP034 and VSP035 was performed using the Excel plug-in 2.0 PK Solver. The results have been fitted according to a non-compartmental modelling following extravascular administration. Concentration-vs-time curves for VSP034 and VSP035.\nThe main pharmacokinetic parameters (half-life, t1/2; time to maximum plasma concentration, Tmax; maximum plasma concentration, Cmax, AUC Extrapolated to Infinity, AUC0-inf; mean residence time, MRT; Apparent Volume of Distribution During Terminal Phase, Vz/F; and apparent oral clearance, CL/F) were calculated from the coefficients and exponents of the best-fits by using standard formulae."}, "[6]": {"test_system": "CaSki (ATCC CRM-CRL-1550)", "test": "Monolayer assay using Sulphorhodamine B (SRB) staining, CaSki", "assay_type": "cell-based", "conditions": "Homo sapiens, Ca-Ski, read-out: EC50 mean [nM]", "description": "Various cell culture cells grown as monolayers are harvested from exponential growing cultures after treatment with various OC compounds at different concentrations. For this depending on the cell line, 10.000 to 30.000 cells were plated in 96-well flat-bottom microtiter plates. After a 24 h recovery period to allow cells to resume exponential growth, supernatants are discarded and 100 μl of culture medium (eight control wells/plate) or culture medium with the test compound are added by a liquid handling robotic system (Microlab® Starlet, Hamilton) and treatment continued for 72 hrs. Compounds are applied at 9 concentrations and eight wells/concentration). At least three independent experiments are performed. For SRB staining, cells are fixed with SRB01 (Tab. 5) for 1 h at 4° C. (final concentration of TCA=10%) washed with a plate washer (Hydroflex, Tecan©) for five times with H2O; and stained with 100 μl of SRB02 at room temperature for 10 min following 4 washes in SRB03 and finally 100 μl of developer solution SRB04 for 5 minutes with shaking. Optical density is assessed using a plate-reader (Sunrise, Tecan©) at 540 nm.\nConcentrations required for half maximal response of the compound for cell growth inhibition (EC50) is calculated by non-linear regression (log[conc. of inhibitor] versus response (% T/C)) using the analysis software GraphPad Prism®, Prism 5 for windows, version 5.01 (GraphPad Software Inc., CA)."}, "[7]": {"test_system": "patient derived SARS-2 Coronavirus (COVID19)", "test": "Inhibition of Sars-CoV2 replication by RNA qPCR analysis in Vero E6 cells", "assay_type": "cell-based, SARS-CoV-2", "conditions": "7.5 μM, supernatants 3 days after infection, n3", "description": "Vero E6 cells were pre-incubated with the compounds at a concentration of 7.5 μM. The cells were infected with a patient derived SARS-2 Coronavirus (COVID19). Cellular supernatants were collected 3 days after infection and centrifuged at 2000 rpm for 5 min to remove detached cells. Viral RNAs were extracted using a MagNA Pure 24 system (Roche, Germany). SARS-CoV-2 RNA genomes were quantified with the TIB MOLBIOL LightMix Assay SARS-CoV-2 RdRP RTqPCR assay kit with RNA Process Control PCR Kit (Roche). The PCR reaction setup was performed using a BRAND LHS laboratory robot to ensure quality. The amplification was performed with a LightCycler 480 II (Roche). Method used in FIG. 10.\nSARV-CoV-2 antiviral activity by of VSP034 and VSP035 (n3; number of repeat of the assay at each condition). The results are shown in for DMSO (1), 7.5 μM VSP034 (2) and 7.5 μM VSP035 (3), y axis logarithmic scale. […] (FIG. 9)"}}}
{"compound": "Nc1ncnc2n[nH]c(Nc3ccc(F)cc3)c12", "note": "[CGP57380, reference compound]", "values": [{"measurement": "% Inhibition", "setting": "[1]", "result": 17.71, "unit": "%"}, {"measurement": "inhibitory activity against p38, JNK1, ERK1/2, PKC, or Src-like kinases", "setting": "[2]", "result": "μM, but has no inhibitory activity against"}, {"measurement": "Phosphorylation of 4E-BP1 on Ser65 and the p70S6 kinase on Thr389", "setting": "[3]", "result": "inhibited or strongly reduced"}]}
{"compound": "COc1cc(OC)c(/C=C/S(=O)(=O)Cc2ccc(OC)c(NCC(=O)O)c2)c(OC)c1", "note": "[ON-01910.Na, reference compound]", "values": [{"measurement": "inhibition at 1.25 µM", "setting": "[1]", "result": 51.4, "unit": "%"}, {"measurement": "activity to Plk3", "setting": "[4]", "result": "against Plk2 and no activity to Plk3."}]}
{"compound": "CN1CCC(CN2C(=O)c3ccccc3[C@@H](C(=O)Nc3cccc(N4CCN(C)CC4)c3)[C@@H]2c2ccc(C(F)(F)F)cc2)CC1", "note": "[VSP034, (3R,4R)-N-[3-(4-methylpiperazin-1-yl)phenyl]-2-[(1-methylpiperidin-4-yl)methyl]-1-oxo-3-[4-(trifluoromethyl)phenyl]-1,2,3,4-tetrahydroisoquinoline-4-carboxamide]", "values": [{"measurement": "AUC(0-inf)", "setting": "[5]; Mean", "result": 529, "unit": "ng·h/mL"}, {"measurement": "AUC(0-inf)", "setting": "[5]; Median", "result": 613, "unit": "ng·h/mL"}, {"measurement": "CL/F", "setting": "[5]; Mean", "result": 3.42, "unit": "mL/min/kg"}, {"measurement": "CL/F", "setting": "[5]; Median", "result": 2.72, "unit": "mL/min/kg"}, {"measurement": "Cmax", "setting": "[5]; Mean", "result": 89, "unit": "ng/mL"}, {"measurement": "Cmax", "setting": "[5]; Median", "result": 87.9, "unit": "ng/mL"}, {"measurement": "MRT inf", "setting": "[5]; Mean", "result": 6.72, "unit": "h"}, {"measurement": "MRT inf", "setting": "[5]; Median", "result": 6.77, "unit": "h"}, {"measurement": "Tmax", "setting": "[5]; Mean", "result": 1.17, "unit": "h"}, {"measurement": "Tmax", "setting": "[5]; Median", "result": 1, "unit": "h"}, {"measurement": "Vd/F", "setting": "[5]; Mean", "result": 1.29, "unit": "L/kg"}, {"measurement": "Vd/F", "setting": "[5]; Median", "result": 0.994, "unit": "L/kg"}, {"measurement": "half-life", "setting": "[5]; t1/2, Mean", "result": 4.33, "unit": "h"}, {"measurement": "half-life", "setting": "[5]; t1/2, Median", "result": 4.22, "unit": "h"}, {"measurement": "condition of the rats after administration of the liposomal formulation", "setting": "[5]; single 100 mg/kg oral gavage, observed 24 hours", "result": "did not show any sign of suffering or abnormal behavior"}, {"measurement": "EC50", "setting": "[6]", "result": 3590, "unit": "nM"}, {"measurement": "reduction of virus load as determined by the PCR assay", "setting": "[7]", "result": "one order of magnitude"}, {"measurement": "inhibition at 1.25 µM", "setting": "[1]", "result": 45.2, "unit": "%"}]}
